What was measured:
[1] = tested on: phospho-MEK in SK-MEL-2 cells; assay: pMEK/tMEK ratio in SK-MEL-2 melanoma model; type: cell-based; conditions: SK-MEL-2 (NRAS p.Q61R); 100 nM
Experimental: (§1) Compound (drug) treatment: Cells were plated in a 6-well plate at a density of 250,000-300,000 cells/well in 3 mL media and incubated 37° C. in a humidified, 5% CO2 incubator. […] These solutions were added to the cells (3 uL/well), mixed by swirling the plate, and incubated at 37° C. in a humidified, 5% CO2 incubator for 2 hours.
(§2) Cell lysis and protein estimation: Cells were washed with PBS, and scraped in 50 μL of lysis buffer containing protease and phosphatase inhibitors. Cell lysates were stored at −20° C. Cell lysates were thawed and spun at 12,000 rpm for one minute, 3 ul of the supernatant was added to 500 μL of Coomassie blue reagent following by 500 μL of water. […] Protein standards were used (0-20 mg/mL) to calculate protein concentrations of test samples.
(§3) All samples were heated at 95° C. for 5 minutes, cooled to room temperature and spun down. […] After the run, gel was removed and protein transfer was done using iBlot for 7 minutes, as per manufacturer's recommendations. After the transfer, nitrocellulose membrane was incubated on a shaker in 5 mL of blocking buffer at room temperature for 1 hr. The blot was then incubated overnight on a shaker in 5 ml of blocking buffer containing 0.2% Tween-20 and primary antibody, at room temperature. Anti-phospho-STAT3 antibody was used at a dilution of 1:500, the other 3 primary antibodies were used at a dilution of 1:1000.
(§4) Next day, the blot was washed 3 times for 10 min each with 10 mL of TBST followed by incubation on a shaker in 5 ml of blocking buffer containing 0.2% Tween-20 and 0.5 ul of the IRDye labeled secondary antibodies, diluted 1:10000, at room temperature for 1 hr. The blot was then washed 3 times for 10 min each with 10 mL of TBST and dried between sheets of paper towels. Imaging was done using LICOR's Odyssey imaging system, quantitation was done using their software, Image Studio version 3.1.
(§5) The nine models are described in Table 16.

[2] = tested on: phospho-MEK in SK-MEL-28 cells; assay: pMEK/tMEK ratio in SK-MEL-28 melanoma model; type: cell-based; conditions: SK-MEL-28 (BRAF p.V600E); 100 nM
Experimental: as §1, §2, §3, §4, §5

[3] = tested on: phospho-MEK in MeWo cells; assay: pMEK/tMEK ratio in MeWo melanoma model; type: cell-based; conditions: MeWo (NF1 LoF); 100 nM
Experimental: as §1, §2, §3, §4, §5

[4] = tested on: phospho-ERK in MM127 cells; assay: pERK/tERK ratio in MM127 melanoma model; type: cell-based; conditions: MM127 (NRAS p.G13R, BRAF p.G464E); 100 nM
Experimental: as §1, §2, §3, §4, §5

[5] = tested on: phospho-ERK in SK-MEL-2 cells; assay: pERK/tERK ratio in SK-MEL-2 melanoma model; type: cell-based; conditions: SK-MEL-2 (NRAS p.Q61R); 100 nM
Experimental: as §1, §2, §3, §4, §5

[6] = tested on: phospho-ERK in SK-MEL-30 cells; assay: pERK/tERK ratio in SK-MEL-30 melanoma model; type: cell-based; conditions: SK-MEL-30 (NRAS p.Q61K); 100 nM
Experimental: as §1, §2, §3, §4, §5

[7] = tested on: phospho-ERK in SK-MEL-28 cells; assay: pERK/tERK ratio in SK-MEL-28 melanoma model; type: cell-based; conditions: SK-MEL-28 (BRAF p.V600E); 100 nM
Experimental: as §1, §2, §3, §4, §5

[8] = tested on: phospho-ERK in MM415 cells; assay: pERK/tERK ratio in MM415 melanoma model; type: cell-based; conditions: MM415 (NRAS p.Q61L); 100 nM
Experimental: as §1, §2, §3, §4, §5

[9] = tested on: phospho-MEK in A375 cells; assay: pMEK/tMEK ratio in A375 melanoma model; type: cell-based; conditions: A375 (BRAF p.V600E); 100 nM
Experimental: as §1, §2, §3, §4, §5

[10] = tested on: phospho-MEK in MM127 cells; assay: pMEK/tMEK ratio in MM127 melanoma model; type: cell-based; conditions: MM127 (NRAS p.G13R, BRAF p.G464E); 100 nM
Experimental: as §1, §2, §3, §4, §5

[11] = tested on: phospho-MEK in MEL-JUSO cells; assay: pMEK/tMEK ratio in MEL-JUSO melanoma model; type: cell-based; conditions: MEL-JUSO (HRAS p.G13D, NRAS p.Q61L); 100 nM
Experimental: as §1, §2, §3, §4, §5

[12] = Liver microsome stability (% remaining at 1 hour), CD-1 mouse; type: in vitro ADME; conditions: 2 μM
Experimental: (§6) Materials and Methods: Individual stock solutions of Test Articles (TA) were prepared at 30 mM in DMSO and were further diluted to 2 mM in DMSO. […] Prior to use in the assay, the 2 mM stock solutions were diluted 10-fold with acetonitrile. The acetonitrile diluted stocks were diluted 1:50 into warm (37° C.) 0.1 M potassium phosphate, pH 7.4, containing 2.0 mM NADPH (2× final assay concentration). Frozen liver microsomes were quick thawed in a 37° C. water bath and then placed on ice. […] The plate was incubated with gentle shaking at 37° C. Duplicate 30 μL aliquots were removed immediately after compound addition (To: time zero) and at 60 minutes. […] The quenched samples were gently mixed and were stored in a −20° C. freezer for at least 30 minutes. […]
(§7) Data Collection and Calculations: Analyst (AB Sciex) and Acquity (Waters) were used for data acquisition. Results were calculated using Microsoft Excel.
(§8) Peak area ratios for IS-normalized test article counts were used to calculate the percent remaining relative to the time zero (T0) value. As appropriate, results were plotted and further analyzed to calculate half-life (T1/2) and CLint values. […]
(§9) Results were plotted [ln (% remaining) vs. incubation time] and further analyzed to calculate half-life (T1/2) values: […]

[13] = PubChem Compound Summary; cited from earlier work
[14] = Liver microsome stability (% remaining at 1 hour), beagle dog; type: in vitro ADME; conditions: 2 μM
Experimental: as §6, §7, §8, §9

in vitro = conditions: human; for Papp A→B at 2 h, 10 μM: Caco-2, Mean Papp A-B (10^-6 cm/s); for Papp B→A at 2 h, 10 μM: Caco-2, Mean Papp B-A (10^-6 cm/s)
[15] = Plasma stability, mouse plasma (Balb/c; Table 5 head CD-1 Mouse); type: in vitro ADME; conditions: 2 μM
[16] = Liver microsome stability (% remaining at 1 hour), human; type: in vitro ADME; conditions: 2 μM
Experimental: as §6, §7, §8, §9

| SMILES | pMEK/tMEK ratio normalized to DMSO [1] | pMEK/tMEK ratio normalized to DMSO [2] | pMEK/tMEK ratio normalized to DMSO [3] | pERK/tERK ratio normalized to DMSO [4] | pERK/tERK ratio normalized to DMSO [5] | pERK/tERK ratio normalized to DMSO [6] | pERK/tERK ratio normalized to DMSO [7] | pERK/tERK ratio normalized to DMSO [8] | pMEK/tMEK ratio normalized to DMSO [9] | pMEK/tMEK ratio normalized to DMSO [10] | pMEK/tMEK ratio normalized to DMSO [11] | Papp A→B at 2 h, 10 μM (in vitro) | Papp B→A at 2 h, 10 μM (in vitro) | A-B Permeability Ranking (Caco-2 cells) | also measured |
| --- | --- | --- | --- | --- | --- | --- | --- | --- | --- | --- | --- | --- | --- | --- | --- |
| CNS(=O)(=O)Nc1cccc(Cc2c(CN(C)C)c3ccc(OC(=O)N(C)C)cc3oc2=O)c1Cl [Compound 274, 3-(2-chloro-3-((N-methylsulfamoyl)amino)benzyl)-4-((dimethylamino)methyl)-2-oxo-2H-chromen-7-yl dimethylcarbamate] | 0.518 | 0.763 | 0.904 | 0.533 | 0.439 | 0.521 | 0.745 | 0.423 | 0.585 | 0.773 | 0.548 | – | – | – | – |
| Cn1cnc2c(F)c(Nc3ccc(Br)cc3Cl)c(C(=O)NOCCO)cc21 [Reference-1, Selumetinib] | 2.055 | 0.984 | 5.483 | 0.255 | 0.191 | 0.163 | 0.152 | 0.114 | 0.962 | 2.341 | 2.988 | 8.83 ×10⁻⁶ cm/s | 28.2 ×10⁻⁶ cm/s | High | CD-1 Mouse (% Reamining @1 hour) ([12]; liver microsomes, 1 hour): 13.9%; human plasma drug half-life [13]: ≥ 6.2 h; Beagle Dog (% Reamining @1 hour) ([14]; liver microsomes, 1 hour): 97.5%; efflux ratio at 2 h, 10 μM (in vitro; Caco-2, Mean (B-A/A-B) (Efflux Ratio)): 3.19; CD-1 Mouse (% Reamining @2 hour) ([15]; CD-1, mouse, 2 h, pH 7.4): 104.8%; Human (% Reamining @1 hour) ([16]; liver microsomes, 1 hour): 75.8% |
| CNS(=O)(=O)Nc1nccc(Cc2c(C)c3ccc(Oc4ncccn4)cc3oc2=O)c1F [Reference-2, reference compound] | – | – | – | – | – | – | – | – | – | – | – | 18.1 ×10⁻⁶ cm/s | 20.9 ×10⁻⁶ cm/s | High | CD-1 Mouse (% Reamining @1 hour) ([12]; CD-1, mouse, 1 h, pH 7.4): 96.0%; Beagle Dog (% Reamining @1 hour) ([14]; beagle, dog, 1 h, pH 7.4): 111.6%; CD-1 Mouse (% Reamining @2 hour) ([15]; plasma, 2 hour): 92.9%; Human (% Reamining @1 hour) ([16]; human, 1 h, pH 7.4): 107.1% |
